“And” between values parts separate entries of the source, which are not always exact repeats. Equal values may be shown once.
How the values were obtained:
[1] = Ketamine wafer safety and tolerability (Likert, Bond and Lader scales) in healthy volunteers; format: in vivo, human
Experimental: Safety assessments included scheduled adverse event (AE) probes, spontaneous AE reporting, routine laboratory investigations, 12-lead electrocardiograms (ECGs) and vital sign evaluation during a 24 hour period from start of dosing. A full physical examination was performed before the first dosing occasion and 24 hours after the second dosing occasion.
Local tolerability was assessed, by using Likert scales, at pre dose, 5, 10, 15, 30 and 45 minutes and one hour post dose administration. Modified Bond and Lader scales to assess sedation and altered perception, by using the three factors “alertness”, “contentedness” and “calmness”, were performed at pre dose, 30 minutes post dose and at hours 1, 1.5, 2, 2.5, 3, 4, 6, 8, 12, and 24 hours post dose administration.
The Bond and Lader scales comprise a total of 16 100-mm lines anchored at either end by antonyms. Participants marked their current subjective state between the antonyms on the line. Each line was scored as millimetres to the mark from the negative antonym. From the resultant scores, three measures derived by factor analysis were isolated. […]

[2] = Ketamine wafer pharmacokinetics and absolute bioavailability, crossover study in healthy volunteers; settings: for extrapolated portion of the AUC, AUCextr: range over subjects; for time of first quantifiable plasma concentration: all subjects
[3] = format: physicochemical; settings: pH 6.8
[4] = gmean of eight volunteers, 10 mg as 30 minute IV infusion
[5] = human, plasma, other: sublingual, 25 mg
[6] = individual subjects, 10 mg as 30 minute IV infusion
[7] = individual subjects, 25 mg SL wafer
[8] = median of eight volunteers, 25 mg SL

In the case of `CNC1(c2ccccc2Cl)CCCCC1=O` (racemic) [RS ketamine, ketamine], the “Bond and Lader mood rating scales (alertness, contentedness, calmness)” value ([1]; 10 mg IV and 25 mg SL, 24 hr observation) is reported as “no clear trends for effects”, the “ECG, vital signs, haematology, clinical chemistry, urinalysis” value ([1]; healthy volunteers) is reported as “no clinically relevant changes or trends for abnormalities” and the “extrapolated portion of the AUC, AUCextr” value ([2]; IV 10 mg) is reported as 3-7%. The “time of first quantifiable plasma concentration” value ([2]; IV dosing 10 mg) was “five”, the “extrapolated portion of the AUC, AUCextr” value ([2]; SL 25 mg) was 2-9% and the “time of first quantifiable plasma concentration” value ([2]; SL dosing 25 mg) was “five”. The “Cmax,I” value [2, 4] was 128.0 ng/mL, the VZ [2, 4] was 237 L and the MRT ([2]; human, plasma, iv, 10 mg) was 3.9 h. The half-life ([2]; human, plasma, iv, 10 mg) was 7 h, the AUC ([2]; human, plasma, iv, 10 mg, AUCINF__, gmean of eight volunteers, 10 mg as 30 minute IV infusion) was 255 ng·h/mL and the AUC ([2]; human, plasma, iv, 10 mg, AUCINF__, individual subjects, 10 mg as 30 minute IV infusion) was 255 ng·h/mL. It also gave a clearance ([2]; human, plasma, iv, 10 mg, CL, gmean of eight volunteers, 10 mg as 30 minute IV infusion) of 654 mL/min, a clearance ([2]; human, plasma, iv, 10 mg, CL, individual subjects, 10 mg as 30 minute IV infusion) of 655 mL/min and a Cmax ([2]; human, plasma, iv, 10 mg, Cmax,I, gmean of eight volunteers, 10 mg as 30 minute IV infusion) of 128 ng/mL. The clearance ([2]; human, plasma, iv, 10 mg, Median CL, IV dosing 10 mg) was 628 mL/min, the Tmax ([2]; human, plasma, iv, 10 mg, tmax,IV, individual subjects, 10 mg as 30 minute IV infusion) was 0.5 h and the Tmax ([2]; human, plasma, iv, 10 mg, tmax,IV, median of eight volunteers, 10 mg as 30 minute IV infusion) was 0.5 h. The MRT [2, 5] was 3.8 h, the bioavailability [2, 5] was 23 to 38% and the AUC ([2]; human, plasma, other: sublingual, 25 mg, AUCINF_, gmean of eight volunteers, 25 mg SL wafer) was 185 ng·h/mL. For the same compound, the AUC ([2]; human, plasma, other: sublingual, 25 mg, AUCINF_, individual subjects, 25 mg SL wafer) was 184 ng·h/mL, the Cmax ([2]; human, plasma, other: sublingual, 25 mg, Cmax,S, gmean of eight volunteers, 25 mg SL wafer) was 71.1 ng/mL and the Tmax ([2]; human, plasma, other: sublingual, 25 mg, tmax,SL, median of eight volunteers, 25 mg SL wafer) was 0.75 h. The AUCINF__ [2, 6] was 270.02 ng·h/mL and 289.22 ng·h/mL and 299.44 ng·h/mL and 261.00 ng·h/mL and 167.21 ng·h/mL and 282.73 ng·h/mL and 243.24 ng·h/mL, the CL [2, 6] was 37.03 L/h and 34.58 L/h and 33.40 L/h and 38.31 L/h and 59.81 L/h and 35.37 L/h and 41.11 L/h and the VZ [2, 6] was 283 L and 253 L and 300 L and 164 L and 385 L and 375 L and 126 L and 158 L. For the same compound, the “t1/2,I” value [2, 6] was 5.0 h and 4.7 h and 6.0 h and 3.4 h and 4.3 h and 2.5 h and 2.7 h, the “tmax,IV” value [2, 6] was 0.6 h and 0.52 h and the “Cmax,I” value ([2]; individual subjects, 10 mg as 30 minute IV infusion, plasma) was 190.2 ng/mL and 124.2 ng/mL and 120.3 ng/mL and 101.8 ng/mL and 83.18 ng/mL and 81.12 ng/mL and 226.6 ng/mL and 163.2 ng/mL. The “bioavailability F” value ([2]; individual subjects, 25 mg SL vs 10 mg IV) was 38% and 29% and 30% and 23% and 28% and 27%, the AUCINF_ [2, 7] was 203.47 ng·h/mL and 171.90 ng·h/mL and 211.33 ng·h/mL and 186.14 ng·h/mL and 161.64 ng·h/mL and 202.89 ng·h/mL and 162.52 ng·h/mL and the “t1/2,” value [2, 7] was 3.2 h and 5.5 h and 3.5 h and 2.3 h and 4.6 h and 5.1 h and 2.9 h and 1.8 h. For the same compound, the “tmax,SL” value [2, 7] was 1 h and 0.58 h and 0.25 h, the “Cmax,S” value ([2]; individual subjects, 25 mg SL wafer, plasma) was 78.77 ng/mL and 60.24 ng/mL and 50.02 ng/mL and 76.12 ng/mL and 51.79 ng/mL and 61.17 ng/mL and 88.76 ng/mL and 128.2 ng/mL and the “mean absorption time MAT” value ([2]; individual subjects, 25 mg SL, MRTSL−MRTIV) was −1.1 hr (2×) and 0.86 hr and −0.56 hr and 0.20 hr and 0.64 hr and 1.1 hr and −0.83 hr. For the same compound, the “t1/2,I” value ([2]; median of eight volunteers, 10 mg as 30 minute IV infusion) was 4.5 h, the “bioavailability F” value [2, 8] was 29 [27, 31] % and the “mean absorption time MAT” value [2, 8] was -0.18 h. For the same compound, the “t1/2,” value ([2]; median of eight volunteers, 25 mg SL wafer) was 3.4 h and the “mean absorption time MAT, Min-Max” value ([2]; minimum and maximum of eight volunteers, 25 mg SL) was -1.1 to 1.1 h.
In the case of `Cc1ncc2n1-c1ccc(Cl)cc1C(c1ccccc1F)=NC2` [midazolam powder, midazolam], the “dissolution rate compared with wafer” value [3] is reported as “considerably slower”.

From patent publication US12186426B2, “Solid dosage form” (IX BIOPHARMA LTD, priority 2009, dated 2025)
